Data reported in patent publication US20250388565A1, “ESTROGEN RECEPTOR ALPHA DEGRADERS AND METHODS OF USE THEREOF” (Relay Therapeutics, Inc., priority 2022, published 2025).

Target: T1, ERα protein (HiBiT-tagged) in ESR1_HiBiT KI MCF7 cells (Homo sapiens, UniProt P03372)
T1 sequence (P03372 1-595): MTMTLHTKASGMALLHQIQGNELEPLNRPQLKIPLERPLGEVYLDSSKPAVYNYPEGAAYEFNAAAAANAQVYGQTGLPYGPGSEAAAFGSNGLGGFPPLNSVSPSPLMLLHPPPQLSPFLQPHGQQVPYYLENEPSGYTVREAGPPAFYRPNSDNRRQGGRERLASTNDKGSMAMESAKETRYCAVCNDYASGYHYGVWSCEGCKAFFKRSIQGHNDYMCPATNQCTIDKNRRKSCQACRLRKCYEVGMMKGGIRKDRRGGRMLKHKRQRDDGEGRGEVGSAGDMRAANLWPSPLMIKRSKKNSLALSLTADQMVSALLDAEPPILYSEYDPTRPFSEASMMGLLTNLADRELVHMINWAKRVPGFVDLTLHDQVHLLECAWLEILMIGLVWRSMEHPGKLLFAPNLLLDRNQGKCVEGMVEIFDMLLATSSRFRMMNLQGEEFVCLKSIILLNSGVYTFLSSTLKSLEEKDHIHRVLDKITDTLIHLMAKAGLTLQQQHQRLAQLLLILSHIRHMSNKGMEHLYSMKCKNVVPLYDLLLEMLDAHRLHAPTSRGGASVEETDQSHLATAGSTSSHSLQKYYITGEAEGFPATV
Assay: Nano Glo HiBiT Lytic Degradation Assay
Format: cell-based
Settings: 6 hours with compound, 14-point dose response 1:3, bell-shape curve fit, half-maximal effect of first Hill model, read-out: MCF7 ESR1 HiBiT - (DC50)
Procedure, shortened: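 ESR1_HiBiT knock-in MCF7 cells were seeded 24 h before treatment, then exposed to compounds for 6 h at 37° C (14-point 1:3 curves, 10 mM top stock, 0.1% DMSO final, duplicates). HiBiT-ERα was read by lytic LgBiT luminescence, background-subtracted and normalized to DMSO. DC50 was taken from the half-maximal point of the first Hill component of a bell-shaped fit.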

Structure (SMILES) | DC50 [nM]
Cc1cc(N2CCC(CN3CCN(c4ccc5c(c4)CN([C@H]4CCC(=O)NC4=O)C5=O)CC3)CC2)ccc1[C@H]1c2ccc(O)cc2CC[C@H]1c1ccccc1 [Compound I-138, (S)-3-(5-(4-((1-(4-((1S,2R)-6-hydroxy-2-phenyl-1,2,3,4-tetrahydronaphthalen-1-yl)-3-methylphenyl)piperidin-4-yl)methyl)piperazin-1-yl)-1-oxoisoindolin-2-yl)piperidine-2,6-dione] | ≥ 10000
Cc1cc(N2CCC(CN3CCN(c4ccc5c(c4)CN([C@H]4CCC(=O)NC4=O)C5=O)CC3)CC2)ccc1[C@@H]1c2ccc(O)cc2CC[C@@H]1c1ccccc1 [Compound I-139, (S)-3-(5-(4-((1-(4-((1R,2S)-6-hydroxy-2-phenyl-1,2,3,4-tetrahydronaphthalen-1-yl)-3-methylphenyl)piperidin-4-yl)methyl)piperazin-1-yl)-1-oxoisoindolin-2-yl)piperidine-2,6-dione] | 0.76
O=C1CC[C@H](N2Cc3cc(N4CCN(CC5CCN(c6ccc([C@H]7c8ccc(O)cc8CCC78CCCCC8)cc6)CC5)CC4)ccc3C2=O)C(=O)N1 [Compound I-142] | ≥ 10000
COc1cc(N2CCC(CN3CCN(c4ccc5c(c4)CN([C@H]4CCC(=O)NC4=O)C5=O)CC3)CC2)ccc1[C@H]1c2ccc(O)cc2CC[C@H]1c1ccccc1 [Compound I-143, (S)-3-(5-(4-((1-(4-((1R,2R)-6-hydroxy-2-phenyl-1,2,3,4-tetrahydronaphthalen-1-yl)-3-methoxyphenyl)piperidin-4-yl)methyl)piperazin-1-yl)-1-oxoisoindolin-2-yl)piperidine-2,6-dione] | ≥ 10000
COc1cc(N2CCC(CN3CCN(c4ccc5c(c4)CN([C@H]4CCC(=O)NC4=O)C5=O)CC3)CC2)ccc1[C@@H]1c2ccc(O)cc2CC[C@@H]1c1ccccc1 [Compound I-144, (S)-3-(5-(4-((1-(4-((1S,2S)-6-hydroxy-2-phenyl-1,2,3,4-tetrahydronaphthalen-1-yl)-3-methoxyphenyl)piperidin-4-yl)methyl)piperazin-1-yl)-1-oxoisoindolin-2-yl)piperidine-2,6-dione] | 0.37
O=C1CC[C@H](N2Cc3cc(N4CCN(CC5CCN(c6ccc([C@H]7c8ccc(O)cc8CC[C@H]7C7CCC8(CC7)CC8)cc6)CC5)CC4)ccc3C2=O)C(=O)N1 [Compound I-145] | ≥ 10000
O=C1CC[C@H](N2Cc3cc(N4CCN(CC5CCN(c6ccc([C@@H]7c8ccc(O)cc8CC[C@@H]7C7CCC8(CC7)CC8)cc6)CC5)CC4)ccc3C2=O)C(=O)N1 [Compound I-146] | 3
C[C@]1(c2ccccc2)CCc2cc(O)ccc2[C@H]1c1ccc(N2CCC(CN3CCN(c4ccc5c(c4)CN([C@H]4CCC(=O)NC4=O)C5=O)CC3)CC2)cc1 [Compound I-147, (S)-3-(5-(4-((1-(4-((1S,2S)-6-hydroxy-2-methyl-2-phenyl-1,2,3,4-tetrahydronaphthalen-1-yl)phenyl)piperidin-4-yl)methyl)piperazin-1-yl)-1-oxoisoindolin-2-yl)piperidine-2,6-dione] | 0.42
C[C@@]1(c2ccccc2)CCc2cc(O)ccc2[C@@H]1c1ccc(N2CCC(CN3CCN(c4ccc5c(c4)CN([C@H]4CCC(=O)NC4=O)C5=O)CC3)CC2)cc1 [Compound I-148, (S)-3-(5-(4-((1-(4-((1R,2R)-6-hydroxy-2-methyl-2-phenyl-1,2,3,4-tetrahydronaphthalen-1-yl)phenyl)piperidin-4-yl)methyl)piperazin-1-yl)-1-oxoisoindolin-2-yl)piperidine-2,6-dione] | 424
CC(C)[C@@H]1CC(F)(F)c2cc(O)ccc2[C@@H]1c1ccc(N2CCC(CN3CCN(c4ccc5c(c4)CN([C@H]4CCC(=O)NC4=O)C5=O)CC3)CC2)cc1 [Compound I-153, (S)-3-(5-(4-((1-(4-((1S,2S)-4,4-difluoro-6-hydroxy-2-isopropyl-1,2,3,4-tetrahydronaphthalen-1-yl)phenyl)piperidin-4-yl)methyl)piperazin-1-yl)-1-oxoisoindolin-2-yl)piperidine-2,6-dione] | 13
CC(C)[C@H]1CC(F)(F)c2cc(O)ccc2[C@H]1c1ccc(N2CCC(CN3CCN(c4ccc5c(c4)CN([C@H]4CCC(=O)NC4=O)C5=O)CC3)CC2)cc1 [Compound I-156, (S)-3-(5-(4-((1-(4-((1R,2R)-4,4-difluoro-6-hydroxy-2-isopropyl-1,2,3,4-tetrahydronaphthalen-1-yl)phenyl)piperidin-4-yl)methyl)piperazin-1-yl)-1-oxoisoindolin-2-yl)piperidine-2,6-dione] | 0.4

The next lines start with the values.

DC50 [nM] | Structure (SMILES)
≥ 10000 | O=C1CC[C@H](N2Cc3cc(N4CCN(CC5CCN(c6ccc([C@H]7c8ccc(O)cc8CC[C@H]7C7CCCCCC7)cc6)CC5)CC4)ccc3C2=O)C(=O)N1 [Compound I-134, (3S)-3-[5-[4-[[1-[4-[(1S,2S)-2-cycloheptyl-6-hydroxy-tetralin-1-yl]phenyl]-4-piperidyl]methyl]piperazin-1-yl]-1-oxo-isoindolin-2-yl]piperidine-2,6-dione]
≥ 10000 | O=C1CC[C@H](N2Cc3cc(N4CCN(CC5CCN(c6ccc([C@H]7c8ccc(O)cc8CC[C@H]7C7CCCCC7)c(F)c6)CC5)CC4)ccc3C2=O)C(=O)N1 [Compound I-136, (S)-3-(5-(4-((1-(4-((1R,2S)-2-cyclohexyl-6-hydroxy-1,2,3,4-tetrahydronaphthalen-1-yl)-3-fluorophenyl)piperidin-4-yl)methyl)piperazin-1-yl)-1-oxoisoindolin-2-yl)piperidine-2,6-dione]
≥ 10000 | O=C1CC[C@H](N2Cc3cc(N4CCN(CC5CCN(c6ccc([C@@H]7c8ccc(O)cc8CC[C@@H]7C7CCCCC7)c(F)c6)CC5)CC4)ccc3C2=O)C(=O)N1 [Compound I-137, (S)-3-(5-(4-((1-(4-((1S,2R)-2-cyclohexyl-6-hydroxy-1,2,3,4-tetrahydronaphthalen-1-yl)-3-fluorophenyl)piperidin-4-yl)methyl)piperazin-1-yl)-1-oxoisoindolin-2-yl)piperidine-2,6-dione]
≥ 10000 | Cc1cc(N2CCC(CN3CCN(c4ccc5c(c4)CN([C@H]4CCC(=O)NC4=O)C5=O)CC3)CC2)ccc1[C@H]1c2ccc(O)cc2CC[C@H]1C1CCCCC1 [Compound I-140, (S)-3-(5-(4-((1-(4-((1S,2S)-2-cyclohexyl-6-hydroxy-1,2,3,4-tetrahydronaphthalen-1-yl)-3-methylphenyl)piperidin-4-yl)methyl)piperazin-1-yl)-1-oxoisoindolin-2-yl)piperidine-2,6-dione]
2 | Cc1cc(N2CCC(CN3CCN(c4ccc5c(c4)CN([C@H]4CCC(=O)NC4=O)C5=O)CC3)CC2)ccc1[C@@H]1c2ccc(O)cc2CC[C@@H]1C1CCCCC1 [Compound I-141, (S)-3-(5-(4-((1-(4-((1R,2R)-2-cyclohexyl-6-hydroxy-1,2,3,4-tetrahydronaphthalen-1-yl)-3-methylphenyl)piperidin-4-yl)methyl)piperazin-1-yl)-1-oxoisoindolin-2-yl)piperidine-2,6-dione]
0.82 | O=C1CC[C@H](N2Cc3cc(N4CCN(CC5CCN(c6ccc([C@@H]7c8ccc(O)cc8CC[C@@H]7C7CCCCC7)nc6)CC5)CC4)ccc3C2=O)C(=O)N1 [Compound I-149, (S)-3-(5-(4-((1-(6-((1S,2R)-2-cyclohexyl-6-hydroxy-1,2,3,4-tetrahydronaphthalen-1-yl)pyridin-3-yl)piperidin-4-yl)methyl)piperazin-1-yl)-1-oxoisoindolin-2-yl)piperidine-2,6-dione]
≥ 10000 | O=C1CC[C@H](N2Cc3cc(N4CCN(CC5CCN(c6ccc([C@H]7c8ccc(O)cc8CC[C@H]7C7CCCCC7)nc6)CC5)CC4)ccc3C2=O)C(=O)N1 [Compound I-150, (S)-3-(5-(4-((1-(6-((1R,2S)-2-cyclohexyl-6-hydroxy-1,2,3,4-tetrahydronaphthalen-1-yl)pyridin-3-yl)piperidin-4-yl)methyl)piperazin-1-yl)-1-oxoisoindolin-2-yl)piperidine-2,6-dione]
11 | COc1cc(N2CCC(CN3CCN(c4ccc5c(c4)CN([C@H]4CCC(=O)NC4=O)C5=O)CC3)CC2)ccc1[C@H]1c2ccc(O)cc2CC[C@H]1C1CCCCC1 [Compound I-151, (S)-3-(5-(4-((1-(4-((1R,2S)-2-cyclohexyl-6-hydroxy-1,2,3,4-tetrahydronaphthalen-1-yl)-3-methoxyphenyl)piperidin-4-yl)methyl)piperazin-1-yl)-1-oxoisoindolin-2-yl)piperidine-2,6-dione]
1.43 | COc1cc(N2CCC(CN3CCN(c4ccc5c(c4)CN([C@H]4CCC(=O)NC4=O)C5=O)CC3)CC2)ccc1[C@@H]1c2ccc(O)cc2CC[C@@H]1C1CCCCC1 [Compound I-152, (S)-3-(5-(4-((1-(4-((1S,2R)-2-cyclohexyl-6-hydroxy-1,2,3,4-tetrahydronaphthalen-1-yl)-3-methoxyphenyl)piperidin-4-yl)methyl)piperazin-1-yl)-1-oxoisoindolin-2-yl)piperidine-2,6-dione]
